Reference: US20140286945A1, “ENZYME INHIBITOR FOR CANCER TREATMENT” (The Curators of the University of Missouri, priority 2011, published 2014)

Experiments:
Wac-3 cells = assay: MTT assay of cell viability in Wac-3 cells; assay type: cell-based
Mec-2 cells [1] = assay: MTT assay of cell viability/proliferation in Mec-2 cells; assay type: cell-based; conditions: for effect on cell proliferation, agents alone: 72 hours, BIBB515 at 10 μm (10^−5), Fludarabine 10 μM (FIG. 4)
CD-20 = assay: Flow-cytometric analysis of CD-20 in Mec-2 cells; assay type: cell-based; conditions: flow cytometry, Fludarabine 10 μM, compared to control (FIG. 2)
CD-54 = assay: Flow-cytometric analysis of CD-54 in Mec-2 cells; assay type: cell-based; conditions: flow cytometry, Fludarabine 10 μM, compared to control (FIG. 2)
Raji cells = assay: Raji (Burkitt lymphoma) cell viability at 72 hours; assay type: cell-based
Protocol: 1. Inhibition on cell viability of Raji after treatments with BIBB515 alone and in combination with Fludarabine. Burkitt lymphoma is a highly aggressive lymphoma, and Raji cells are sensitive to Fludarabine treatment at 10 μM concentration. […] Fludarabine was used at 5 μM concentration.
2. Inhibition on cell viability of Raji after treatments with Terbinafine alone and in combination with Fludarabine. […] The preferred cholesterol concentration range may also various between different cancer types.

MCF-7 cells = assay: MCF-7 cell proliferation (MTT); assay type: cell-based; conditions: for response of MCF-7 cells to treatment: at low doses
Protocol: Refer to FIG. 11, which compares MCF-7 cell proliferation data among the treatments of BIBB515, Tamoxifen, Anastraozole, and various combinations thereof. During the experiments, the MCF-7 cells were treated with charcoal-stripped serum prior to treatment and grown with treatment repeated every 72 hrs. The cells were grown for 6 days, on day 7 the cell proliferation was determined by adding MTT and read at 570 nm according to the manufactures instructions. […] Thus, inhibiting the cholesterol pathway can inhibit the estrogen induced cell proliferation in MCF-7 cells.

patient CLL cells = assay: Patient CLL cell viability; assay type: cell-based
Protocol: 1. Inhibition effect with BIBB515 alone and in combination with Fludarabine and Rituximab on patient cells. To assess the effect of treatment on cell viabilities, patient CLL cells were treated with BIBB515 alone and in combination with Fludarabine and Rituximab. Untreated CLL patient cell samples and samples of patients exposed to Fludarabine were used. The treatment was done 24 hrs after the cells plated in T25 flasks.

Mec-2 cells [2] = assay: Confocal microscopic analysis of glycosphingolipid density in Mec-2 cells; assay type: cell-based; conditions: confocal microscopy, relative to control, TAK-475 at 10 μM, data not shown
Protocol: Mec-2 cells were treated with BIBB515, YM-53601, or 10 μM of TAK-475 and imaged by confocal miscrscope. […] This would explain why rituximab is of limited or no efficacy in Mec-2 and Wac-3 cells, and provides a rationale for the efficacy of combination treatment with rituximab and a cholesterol biosynthetic pathway inhibitor.

dog lymphoma cells = assay: Dog lymphoma cell viability; assay type: cell-based; conditions: BIBB515 10 μM
Excerpt: Spontaneously occurring lymphoma in the dog has many of the same histopathological, molecular, and clinical features as non-Hodgkin's lymphoma (NHL) in humans. Most of the lymphoma subtypes recognized in humans have histopathologically identical counterparts in the dog and recent investigations show similar molecular characteristics in the two species. Likewise, spontaneous lymphoma in the dog has a similar clinical presentation, response to chemotherapy, and clinical progression compared to NHL in human patients. […] A canine lymphoma cell line, OSW, was established from the thoracic effusion of a dog with relapsed peripheral T-cell lymphoma. […] See, e.g., U.S. Pat. No. 7,897,150 and Kisseberth, W. C., et al., “A novel canine lymphoma cell line: a translational and comparative model for lymphoma research,” Leuk Res, 2007 31(12): p. 1709-20.

Mec-2 cells [3] = assay: Membrane lipid content of Mec-2 cells by mass spectrometry; assay type: cell-based; conditions: 24 hrs, 10^−5 M; for some diacyl phosphatidylcholine species: versus DMSO controls; for lysophosphatidylcholines (LPC): versus DMSO controls (FIG. 19); for levels of phosphatidylcholines (PC): versus DMSO controls (FIG. 20); for levels of glycosphingolipids/dihydroglycosphingolipids: versus DMSO controls (FIG. 21); for levels of ether-linked phosphatidylcholines: versus DMSO controls (FIG. 22)
Protocol: Lipids were extracted by the following chloroform and methanol method. To 0.8 parts cells in aqueous solution, 1 part chloroform and 2 parts methanol was added and shaken well, then another 1 part chloroform and 1 part water added and shaken. The mixture was then centrifuged at low speeds for 5-10 min. and the lower layer removed. One part chloroform was added 3 times, shaken and centrifuged to again remove the lower layer. The layers were then combined, washed with KCl and then water. The extracted lipids from Mec-2 cells were vacuum dried after 24 hrs. of treatment with BIBB(10^−5 M) and YM(10^−5 M). Controls were treated with DMSO.
Samples were analyzed by mass spectrometry by the Kansas Lipidomics Research Center (KLRC) and identified and quantified by comparison against standard molecular weights of lipids. Each sample was loaded, vaporized, and ionized by electron beam; ions electromagnetically separated according to mass-to-charge ratio (m/z) were detected, and the ion signal processed into mass spectra.
Compounds were identified based on m/z of the intact ion and the mass of one fragment formed in the mass spectrometer: typically, for polar lipids, a head group fragment; for sphingolipids, a fragment characteristic of the long-chain base or sugar(s); for neutral lipids and for specialized analyses, often an acyl fragment. Quantities were reported as normalized signal/(tissue metric nanomole/3 million cells) against internal standards added in known amounts, usually with an adjustment for variation in response with m/z. Thus, quantities reported as normalized signal/(tissue metric) for diacyl or monoacyl phospholipids can be considered to be equal to nmol/(tis sue metric).

Mec-2 cells [4] = conditions: 10 µM
[5] = rat, hamster, squirrel monkey and minipig models; due to inhibition of LDL production; cited from earlier work
[6] = tested on: multiple myeloma cell line U226B1; assay: Multiple myeloma cell line proliferation; assay type: cell-based; conditions: Ro-48-8071 alone (FIG. 12)
Mec-2 cells [7] = assay: Flow cytometry of glycosphingolipids in Mec-2 cells; assay type: cell-based; conditions: data not shown
[8] = 10 μM YM-53601, 10 μg/mL alemtuzumab

Compound: alemtuzumab: CD52-targeting monoclonal antibody
- effect on cellular proliferation (Wac-3 cells; [8]): ineffective at the concentration tested

Compound: Rituximab: an antiCD-20 monoclonal antibody that is in use in clinics
- effect on cell proliferation, agents alone (Mec-2 cells [1]): resistant
- effect on cellular proliferation (Wac-3 cells; 10 μM TAK-475, 5 μM Fludarabine, 10 μg/mL Rituximab (FIG. 14)): wholly ineffective

Compound: O=C(c1ccc(Cl)cc1)N1CCC(=Cc2ccc(C3=NCCO3)cc2)CC1 [BIBB515]
- CD-20 cell surface expression (CD-20): increased CD-20 cell surface expression
- CD-54 cell surface expression (CD-54): maintained at the similar level
- effect on cell proliferation, agents alone (Mec-2 cells [1]): able to inhibit cell proliferation
- sensitization of cells to Rituximab treatment (Wac-3 cells; BIBB515 study (FIG. 8)): sensitizes the Wac-3 cells to Rituximab treatment
- Raji cell proliferation (Raji cells; BIBB515 various concentrations, even at 10^−7, Fludarabine 5 μM (FIG. 9)): reduced
- sensitization of MCF-7 cells (MCF-7 cells; FIG. 11): sensitized
- proliferation of cells with estrogen (MCF-7 cells; MCF-7, charcoal-stripped serum, 6 days, MTT on day 7 (FIG. 11)): blocked
- cell death in MCF-7 cells (MCF-7 cells; relatively low doses of Tamoxifen or Anastrazole): induces cell death
- effect on cell viability (patient CLL cells; BIBB515 study): reducing the cell viability moderately
- glycosphingolipids and thus lipid raft density (Mec-2 cells [2]): increase
- cell viability (dog lymphoma cells; Chlorambucil 100 nM (FIG. 16)): reducing the cell viability somewhat
- cell viability (dog lymphoma cells; lomustine 100 nM (FIG. 15)): reducing the cell viability somewhat
- some diacyl phosphatidylcholine species (Mec-2 cells [3]): reduce
- lysophosphatidylcholines (LPC) (Mec-2 cells [3]): reduce
- levels of phosphatidylcholines (PC) (Mec-2 cells [3]): increase
- levels of glycosphingolipids/dihydroglycosphingolipids (Mec-2 cells [3]): increase
- levels of ether-linked phosphatidylcholines (Mec-2 cells [3]): increase
- viability (Mec-2 cells [4]): 65%
- lipid lowering [5]: lower lipids

Compound: CN(C/C=C/C#CC(C)(C)C)Cc1cccc2ccccc12 [Terbinafine, terbinafine]
- cell proliferation (MTT assay) (Mec-2 cells [1]; Terbinafine 60 μM, controls 0.5 (FIG. 5)): 0.16
- Raji cell proliferation (Raji cells; Terbinafine study (FIG. 10)): reduced

Compound: CC(C)(C#N)c1cc(Cn2cncn2)cc(C(C)(C)C#N)c1 [Anastrazole]
- response of MCF-7 cells to treatment (MCF-7 cells): resistant

Compound: C=CCN(C)CCCCCCOc1ccc(C(=O)c2ccc(Br)cc2)c(F)c1 [Ro-48-8071]
- concentration giving the highest inhibition (dose dependent sensitivity) (Mec-2 cells [1]; Ro-48-8071 alone (FIG. 6)): 30 µM
- effect on cell proliferation (Mec-2 cells [1]; Ro-48-8071 study, Fludarabine 10 μM (FIG. 6)): inhibits Mec-2 cell proliferation significantly
- cell proliferation [6]: provides reduction on cell proliferation
- cell viability (patient CLL cells; Ro-48-8071 study, control over 80%): about 65%
- lipid lowering [5]: lower lipids

Compound: F/C(COc1ccc2c(c1)[nH]c1ccccc12)=C1/CN2CCC1CC2 [YM-53601]
- effect on cell proliferation (Mec-2 cells [1]; YM-53601 100 nM (FIG. 7)): reduces Mec-2 cell proliferation moderately
- effect on cellular proliferation (Wac-3 cells; [8]): effective at preventing cellular proliferation
- growth of cell population (Wac-3 cells; 10 μM YM-53601, 10 μg/mL alemtuzumab, control population more than tripled): did not achieve even a doubling
- glycosphingolipids and thus lipid raft density (Mec-2 cells [2]): increase
- glycosphingolipids / lipid raft density by flow cytometry (Mec-2 cells [7]): increase was confirmed
- some diacyl phosphatidylcholine species (Mec-2 cells [3]): reduce
- lysophosphatidylcholines (LPC) (Mec-2 cells [3]): reduce
- levels of phosphatidylcholines (PC) (Mec-2 cells [3]): increase
- levels of glycosphingolipids/dihydroglycosphingolipids (Mec-2 cells [3]): increase
- levels of ether-linked phosphatidylcholines (Mec-2 cells [3]): increase

Compound: CC/C(=C(\c1ccccc1)c1ccc(OCCN(C)C)cc1)c1ccccc1 [Tamoxifen]
- response of MCF-7 cells to treatment (MCF-7 cells): resistant

Compound: Nc1nc(F)nc2c1ncn2[C@@H]1O[C@H](CO)[C@@H](O)[C@@H]1O [Fludarabine]
- viability (Mec-2 cells [4]): 82%
